Source: publication PMC3466118 (Journal of medicinal chemistry, 2011)

Key:
[1] = test system: retinoic acid differentiated SH-SY5Y human neuroblastoma cells treated with 30; assay: Neuroprotection assay, cells stressed with compound 30; format: cell-based; settings: for Neuroprotective effect: differentiated SH-SY5Y cells stressed with 100 μM of 30, 24 h, XTT
[2] = test system: acetylation of histone H4 in retinoic acid-differentiated SH-SY5Y cells; assay: Acetylation of H4 in differentiated SH-SY5Y cells; format: cell-based, human; settings: 1 μM, also in cells stressed with compound 30
[3] = test system: retinoic acid-differentiated SH-SY5Y neuroblastoma cells; assay: Cytotoxicity in unstressed differentiated SH-SY5Y cells; format: cell-based, human; settings: 0.5–50 μM, 24 h, XTT
[4] = test system: HepG2, Hela and SH-SY5Y carcinoma cell lines; assay: Antiproliferative activity across the three carcinoma cell lines; format: cell-based; settings: Homo sapiens, read-out: EC50–48 h, span over the three cell lines
[5] = test system: cleavage of caspase 3 in HepG2 cells; assay: Western blot, activation/cleavage of caspase 3 in HepG2 cells; format: cell-based, human
[6] = test system: acetylation of p53 in HepG2 cells; assay: Western blot, acetylation of p53 in HepG2 cells; format: cell-based, human; settings: HepG2 total cell extracts
[7] = molecular target: recombinant human HDAC3/NCoR2 (Homo sapiens, UniProt O15379); assay: HDAC3 inhibition, fluorescent substrate Boc-L-Lys
[8] = molecular target: T1, recombinant human HDAC8 (Homo sapiens, UniProt Q9BY41); assay: HDAC8 inhibition, fluorescent substrate Fluor de Lys
T1 sequence (Q9BY41 1-377): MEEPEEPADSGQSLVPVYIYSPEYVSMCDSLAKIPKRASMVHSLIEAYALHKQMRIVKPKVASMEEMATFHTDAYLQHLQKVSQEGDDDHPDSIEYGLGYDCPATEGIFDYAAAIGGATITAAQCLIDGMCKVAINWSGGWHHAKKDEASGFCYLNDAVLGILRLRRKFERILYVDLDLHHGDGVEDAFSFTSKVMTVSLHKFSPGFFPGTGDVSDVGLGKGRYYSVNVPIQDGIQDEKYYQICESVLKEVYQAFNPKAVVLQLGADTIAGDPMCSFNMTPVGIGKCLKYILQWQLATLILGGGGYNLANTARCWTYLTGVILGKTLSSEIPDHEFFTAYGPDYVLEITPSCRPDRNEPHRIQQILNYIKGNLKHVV

[9] = molecular target: T1, recombinant human HDAC8; settings: cited from earlier work

Sequence of recombinant human HDAC3/NCoR2 (O15379 whole entry): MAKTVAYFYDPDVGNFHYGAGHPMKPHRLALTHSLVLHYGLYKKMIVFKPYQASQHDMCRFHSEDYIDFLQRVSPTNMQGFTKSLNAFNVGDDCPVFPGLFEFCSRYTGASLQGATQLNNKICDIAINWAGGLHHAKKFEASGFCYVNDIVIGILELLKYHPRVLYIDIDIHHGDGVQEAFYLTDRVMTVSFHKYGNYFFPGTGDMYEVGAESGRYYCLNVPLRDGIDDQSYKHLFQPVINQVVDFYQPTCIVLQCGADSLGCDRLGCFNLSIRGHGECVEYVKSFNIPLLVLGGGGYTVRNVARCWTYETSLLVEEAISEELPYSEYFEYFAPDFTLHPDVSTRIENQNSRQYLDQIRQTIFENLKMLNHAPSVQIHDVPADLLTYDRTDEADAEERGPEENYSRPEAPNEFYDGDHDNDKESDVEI
Sequence of recombinant human HDAC3/NCoR2 (Q9Y618 395-489 partner limits assumed): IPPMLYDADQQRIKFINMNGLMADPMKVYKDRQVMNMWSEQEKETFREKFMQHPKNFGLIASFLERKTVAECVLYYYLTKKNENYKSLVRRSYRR

[N-]=[N+]=Nc1ccc(-c2cc(C(=O)NCCCCCCC(=O)NO)no2)cc1 [2a, 5-(4-Azidophenyl)isoxazole-3-carboxylic acid(6-hydroxycarbamoylhexyl)amide]
Neuroprotective effect [1]: protect cells from stress induced by compound 30 at low micromolar concentrations | Hyperacetylation of histone H4 [2]: induce hyperacetylation of histone H4 | Cytotoxicity to differentiated neuroblastoma cells [3]: not overly cytotoxic

[N-]=[N+]=NCc1cc(N=[N+]=[N-])cc(C(=O)Nc2ccc(-c3cc(C(=O)NCCCCCCC(=O)NO)no3)cc2)c1 [2b, 5-[4-(3-Azido-5-azidomethylbenzoylamino)phenyl]isoxazole-3-carboxylic acid (6-hydroxycarbamoylhexyl)amide]
EC50 [4]: 11 to 32 µM | Cleavage of caspase 3 [5]: induced cleavage of caspase 3 by 14 h with maximum activation at 24 h | Acetylation of p53 [6]: neither SAHA nor 2b induced additional time and dose-dependent hyperacetylation of p53 | Neuroprotective effect [1]: protect cells from stress induced by compound 30 at low micromolar concentrations | Hyperacetylation of histone H4 [2]: induce hyperacetylation of histone H4

O=C(CCCCCCC(=O)Nc1cnn(Cc2ccccc2)c1)NO [3a, Octanedioic acid (1-benzyl-1H-pyrazol-4-yl)amide hydroxyamide]
EC50 [4]: 10 to 23 µM | Neuroprotective effect [1]: non-neuroprotective | Cytotoxicity to differentiated neuroblastoma cells [3]: not toxic to the cells

[N-]=[N+]=Nc1ccc(Cn2cc(NC(=O)CCCCCCC(=O)NO)cn2)cc1 [3c, Octanedioic acid [1-(4-azidobenzyl)-1H-pyrazol-4-yl]amide hydroxyamide]
EC50 [4]: 10 to 23 µM | Fold better potency than 3a, HDAC3 ([7]; compared with 3a): 2.0 fold | Neuroprotective effect [1]: non-neuroprotective | Cytotoxicity to differentiated neuroblastoma cells [3]: not toxic to the cells | Fold better potency than 3a, HDAC8 ([8]; compared with 3a): 2.7 fold

[N-]=[N+]=NCc1cc(Cn2cc(NC(=O)CCCCCCC(=O)NO)cn2)cc(N=[N+]=[N-])c1 [3f, Octanedioic acid [1-(3-azido-5-azidomethylbenzyl)-1H-pyrazol-4-yl]amide hydroxyamide]
EC50 [4]: 24 to 36 µM | IC50 ratio compound/SAHA, HDAC3 [7]: ND ^e 4.74 | Cell survival relative to vehicle ([1]; 0.5 and 1 μM, differentiated SH-SY5Y cells stressed with 100 μM of 30): more than doubles the amount of cell survival | Neuroprotective effect [1]: protect cells from stress induced by compound 30 at low micromolar concentrations | Hyperacetylation of histone H4 [2]: induce hyperacetylation of histone H4 | Cytotoxicity to differentiated neuroblastoma cells [3]: subtle toxicity at 20 μM | Fold more active towards HDAC8 than HDAC3 (selectivity) ([8]; HDAC8 vs HDAC3): 8 fold

[N-]=[N+]=NCc1cc(COc2ccc(NC(=O)CCCCCCC(=O)NO)cc2)cc(N=[N+]=[N-])c1 [compound 1]
Fold decrease in HDAC8 inhibitory activity compared to SAHA [9]: 17 fold
